This assay addresses Ubiquitin carboxyl-terminal hydrolase 8 (Homo sapiens) (UniProt P40818). In words: Ubiquitin-specific protease 8 inhibitors, concentration-effect, biochemical, validation of initial actives (AID 1645862).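 Also: potency reflects inhibition of USP8 cleavage of a ubiquitin rhodamine substrate.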 Particulars: recombinant USP8 deubiquitinase activity assay.

Active and inactive are the calls of the source. No rule for the calls is given here.

Ubiquitin carboxyl-terminal hydrolase 8 (Homo sapiens), sequence (P40818 whole entry, looked up): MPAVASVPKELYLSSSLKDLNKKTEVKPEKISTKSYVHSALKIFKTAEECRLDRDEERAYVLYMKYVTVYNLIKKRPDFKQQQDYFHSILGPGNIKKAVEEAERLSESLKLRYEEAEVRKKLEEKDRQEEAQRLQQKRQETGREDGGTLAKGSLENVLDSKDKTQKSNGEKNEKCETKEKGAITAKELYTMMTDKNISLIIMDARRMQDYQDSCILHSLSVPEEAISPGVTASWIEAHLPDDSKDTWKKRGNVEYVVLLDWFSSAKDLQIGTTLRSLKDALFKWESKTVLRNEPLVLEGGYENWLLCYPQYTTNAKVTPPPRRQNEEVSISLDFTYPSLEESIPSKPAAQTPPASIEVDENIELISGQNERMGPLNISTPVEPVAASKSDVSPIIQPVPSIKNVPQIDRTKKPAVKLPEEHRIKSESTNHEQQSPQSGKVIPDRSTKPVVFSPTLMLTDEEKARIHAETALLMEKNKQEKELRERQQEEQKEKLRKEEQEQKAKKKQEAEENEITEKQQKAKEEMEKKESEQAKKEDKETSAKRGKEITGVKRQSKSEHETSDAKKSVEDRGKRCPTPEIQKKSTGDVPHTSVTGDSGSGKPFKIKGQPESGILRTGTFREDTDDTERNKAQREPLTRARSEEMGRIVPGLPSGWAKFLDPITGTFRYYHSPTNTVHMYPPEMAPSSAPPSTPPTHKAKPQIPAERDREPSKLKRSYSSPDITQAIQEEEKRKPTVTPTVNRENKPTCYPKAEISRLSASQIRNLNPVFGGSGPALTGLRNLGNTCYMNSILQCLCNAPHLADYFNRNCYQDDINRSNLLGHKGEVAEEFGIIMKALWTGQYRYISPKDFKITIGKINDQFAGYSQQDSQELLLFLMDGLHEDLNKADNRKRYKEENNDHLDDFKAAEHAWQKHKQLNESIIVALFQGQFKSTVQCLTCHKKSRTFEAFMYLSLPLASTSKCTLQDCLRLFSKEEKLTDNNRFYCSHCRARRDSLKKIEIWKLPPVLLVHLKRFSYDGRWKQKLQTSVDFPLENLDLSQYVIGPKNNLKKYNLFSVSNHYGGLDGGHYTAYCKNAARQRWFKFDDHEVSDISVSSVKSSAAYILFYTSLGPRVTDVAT

A word on the IC50: it is the point on the concentration scale where inhibition reaches its midpoint. On to `Cc1nnc2ccc(-c3ccc(NC(=O)c4ccc(Br)o4)cc3)nn12`, for which the IC50 was > 40 µM (inactive).
With `COc1ccc(OC)c(NC2=NS(=O)(=O)C(c3cccc(Br)c3)=C2C)c1` the figure was > 40 µM (inactive); with `c1ccc2sc(-c3csc(-c4ccc5c(c4)OCCO5)n3)nc2c1`, > 40 µM (inactive).
With `COc1ccc(N(CC(=O)NC2CCCCC2)C(=O)c2ccc(-c3ccccc3)[nH]2)cc1OC` the figure was > 40 µM (inactive); with `COc1ccccc1Nc1ncc(C(=O)NCc2ccc(F)cc2)c2ccccc12`, > 40 µM (inactive); with `COc1ccc(NC(=O)CC(=O)c2ccc([N+](=O)[O-])cc2)cc1S(=O)(=O)Nc1ccc(Cl)cc1`, > 40 µM (inactive).
On to `N#Cc1cn2c(nc1-c1ccc(Cl)cc1)nc1ccccc12`, for which the IC50 was > 40 µM (inactive).
In the case of `O=C(CSc1nc2c(cnn2-c2ccccc2)c(=O)[nH]1)Nc1ccc(Cl)cc1F`, the IC50 is 32.1 µM.
In the case of `O=C(Nc1cccc2ccccc12)N1CCC(c2nc3c(nnn3Cc3ccc(F)cc3)c(=O)[nH]2)CC1`, the IC50 was > 40 µM (inactive).
On to `O=C(Cn1c(COc2ccccc2)nc2ccccc21)Nc1ccc(N2CCOCC2)cc1`, for which the IC50 was > 40 µM (inactive).
With `CCOc1ccc(CC(=O)Nc2ccc(-c3cn4cccnc4n3)cc2)cc1` the figure was > 40 µM (inactive); with `Cc1ccc2[nH]c(=O)c(CN(CC3COCCO3)S(=O)(=O)c3ccc(F)cc3)cc2c1` (centres undefined), > 40 µM (inactive); with `Cc1c(-c2nn3c(-c4ccco4)nnc3s2)cccc1[N+](=O)[O-]`, > 40 µM (inactive).
With `COc1cccc(C(=O)Nc2ccc(SC(C)C(=O)Nc3ccc(C(N)=O)cc3)cc2)c1` (centres undefined) the figure was > 40 µM (inactive).
With `Cn1c(O)c(C2=Nc3ccccc3SC(c3cccc(O)c3)C2)c(=O)[nH]c1=O` (centres undefined) the figure was > 40 µM (inactive).
`Cc1nn(-c2ccccc2)c2c1N=C1C(Cl)=CC(Cl)=CN1C21C(=O)Nc2ccccc21` (centres undefined): the IC50 is > 40 µM (inactive).
On to `Cc1ccc(NC(=O)c2ccc3nn(CC(=O)Nc4ccc(C)cc4C)c(=O)n3c2)cc1`, for which the IC50 was > 40 µM (inactive).
With `O=S(=O)(Nc1ccc(Oc2ncnc3cc(Cl)ccc23)nc1)c1ccc(S(=O)(=O)c2ccccc2)s1` the figure was > 40 µM (inactive).
Take `Cc1cccc(N2CCN(C(=O)c3nc4cccnc4n(C)c3=O)CC2)c1C`: the IC50 was > 40 µM (inactive).
For `Cc1ccc(Cn2nnc3c(=O)[nH]c(C4CCN(S(=O)(=O)c5ccc(S(=O)(=O)NC6CCCC6)cc5)CC4)nc32)cc1` the value was > 40 µM (inactive).
For `COc1ccc(/C=C/C(=O)Nc2ccc(Cl)c(-c3nc4ncccc4o3)c2)cc1` the value was > 40 µM (inactive).
For `O=C(Nc1ccccc1)Nc1ccc(F)c(-c2nnc(-c3ccccc3)o2)c1` the value was > 40 µM (inactive).
On to `CCCCCCCc1cc(OC(=O)c2c(CCCCCCC)cc(O)cc2O[C@@H]2O[C@H](CO)[C@H](O)[C@H](O)[C@H]2O)cc(O)c1C(=O)O`, for which the IC50 was 9.43 µM.
With `O=C(Nc1ccc2c(c1)CCC2)C1Cc2ccccc2CN1C(=O)c1ccccc1` (centres undefined) the figure was > 40 µM (inactive); with `O=C1CC(c2nc3ccccc3n2CCOc2ccc(Cl)cc2)CN1c1ccccc1` (centres undefined), > 40 µM (inactive).
Regarding `CCn1cc2c(n1)c(=O)n(Cc1ccccc1)c(=O)n2CC(=O)Nc1ccc(C(C)C)cc1`, the IC50 was > 40 µM (inactive).
For `Cc1cc(=O)n(CC(=O)Nc2ccccc2C)c(Nc2ccc(F)cc2)n1` the value was > 40 µM (inactive); for `Cc1cccc(-n2ccnc(SCC(=O)Nc3ccc(Cl)cc3F)c2=O)c1`, > 40 µM (inactive).
With `Cc1cc(C)c(NC(=O)Cn2c(SCc3cccc(F)c3)nc3cccnc32)c(C)c1`, the IC50 was > 40 µM (inactive).
For `COCCNC(=O)Cn1c(=O)n(Cc2ccc(C(=O)NCc3ccc(C)cc3)cc2)c(=O)c2ccccc21`, the IC50 was > 40 µM (inactive).
With `O=C(COC(=O)C(Cc1c[nH]c2ccccc12)NC(=O)c1ccccc1Cl)Nc1ccc([N+](=O)[O-])cc1C(F)(F)F` (centres undefined) the figure was > 40 µM (inactive); with `O=C(Nc1cccc(C(F)(F)F)c1)c1cc2c(s1)-c1ccccc1OC2`, > 40 µM (inactive).
With `Cc1nnc(-c2cc(S(=O)(=O)N3CCN(c4ccc(F)cc4)CC3)c[nH]2)o1` the figure was > 40 µM (inactive).
On to `Cc1cccc(NC(=O)CSc2nnc(NC(=O)c3ccc4ccccc4c3)s2)c1`, for which the IC50 was > 40 µM (inactive).
For the compound `O=C(NC(Cc1ccccc1)c1nc2ccccc2[nH]1)C1CC1` (centres undefined), the IC50 is 24.4 µM.
With `Cc1csc(NC(=O)c2c[nH]c3ccc(F)cc3c2=O)n1` the figure was > 40 µM (inactive).
Regarding `O=C(Nc1ccc2c(c1)OCCO2)C1CCC(Cn2cnc3ccccc3c2=O)CC1` (centres undefined), the IC50 was > 40 µM (inactive).
Regarding `N=C1/C(=C/c2cn(Cc3ccccc3F)c3ccccc23)C(=O)N=C2SC(C(F)(F)F)=NN12`, the IC50 was > 40 µM (inactive).
With `COc1cc(C2CC(=O)c3c([nH]c(C(=O)OCCOc4ccccc4)c3C)C2)cc(OC)c1OC` (centres undefined) the figure was > 40 µM (inactive).
For `COc1cc(=O)c(C(=O)Nc2ccc(C#N)cc2)nn1-c1cccc(F)c1` the value was > 40 µM (inactive); for `O=C(Cn1cc(C(=O)c2ccccc2)c(=O)c2cc(F)ccc21)Nc1ccc2c(c1)OCO2`, > 40 µM (inactive); for `CN1CCc2c(C#N)c(N3CCOCC3)nc(NCC3CCCO3)c2C1` (centres undefined), > 40 µM (inactive).
For `COc1ccc(N2CC(c3nnc(NC(=O)CCc4ccccc4)s3)CC2=O)cc1` (centres undefined) the value was > 40 µM (inactive); for `CC(Nc1nnc(Cc2ccccc2)c(=O)[nH]1)c1ccccc1` (centres undefined), > 40 µM (inactive).
As for `CCCn1cc(-c2nc(-c3ccccn3)no2)c(=O)c2ccccc21`, the IC50 was > 40 µM (inactive).
With `CCc1ccccc1NC(=O)Cn1c(=O)n(CC(=O)NCc2ccccc2Cl)c(=O)c2sccc21` the figure was > 40 µM (inactive).
Consider `CCOc1ccc2c(c1)c(=O)c(C(=O)c1ccccc1)cn2CC(=O)Nc1ccccc1`, for which the IC50 was > 40 µM (inactive).
With `Cc1cc(Cl)ccc1NC(=O)c1cc(-c2ccncc2)n[nH]1` the figure was > 40 µM (inactive).
With `Nc1c(-c2ccc(Cl)cc2)cnc2cc(-c3ccc(Cl)c(Cl)c3)nn12` the figure was > 40 µM (inactive); with `CCOc1ccc(-c2noc(-c3nn(-c4cccc(OC)c4)ccc3=O)n2)cc1`, 34.1 µM; with `COC(=O)c1ccc2c(=O)n(CCCCCC(=O)NCc3cccc(Cl)c3)c(=O)[nH]c2c1`, > 40 µM (inactive).
With `COc1cccc(NC(=O)Cn2cc(C(=O)c3ccc(C)cc3)c(=O)c3cc(Cl)ccc32)c1` the figure was 19.3 µM; with `CC(=O)O[C@@H](C/C=C(\C)C(=O)O)[C@@H](C)[C@H]1C[C@H](OC(C)=O)[C@@]2(C)C3=CC[C@H]4C(C)(C)[C@H](O)CC[C@]4(C)C3=CC[C@]12C`, > 40 µM (inactive); with `Cc1ccc(-n2c(=O)c3ccc(C(=O)NCc4ccco4)cc3n(CC(=O)NCCC3=CCCCC3)c2=O)cc1`, > 40 µM (inactive).
In the case of `Cc1ccc(-c2cc(=O)n(CC(=O)Nc3ccc(C(C)C)cc3)cn2)cc1`, the IC50 was > 40 µM (inactive).
With `Cc1ccc(-n2nc(C(=O)Nc3ccc(C)cn3)c3ncn(C)c(=O)c32)cc1` the figure was > 40 µM (inactive).
For `COC(=O)c1ccc(N2CCN(C(C)=O)CC2)c(NC(=O)COc2ccc([N+](=O)[O-])cc2)c1` the value was > 40 µM (inactive).
For `Cc1ccc(N2CC(c3nnc(NC(=O)CCc4ccccc4)s3)CC2=O)cc1` (centres undefined) the value was > 40 µM (inactive); for `Cn1c2ccccc2c(=O)c2c(=O)n(Cc3ccco3)c(-c3ccccc3F)nc21`, 29.4 µM; for `O=C(Oc1ccc2cc(Br)ccc2c1)c1ccncc1`, > 40 µM (inactive).
In the case of `O=C(Cc1ccc(-n2c(=O)c3ccccc3n(Cc3cccc(F)c3)c2=O)cc1)NC1CCCC1`, the IC50 was > 40 µM (inactive).
With `O=C(NCc1ccc2c(c1)OCO2)c1cn(-c2cccc(Cl)c2)nn1` the figure was > 40 µM (inactive); with `FC(F)(F)c1ccc(Nc2nnnc3ccccc23)cc1`, > 40 µM (inactive); with `Cc1ccc2c(c1)c(=O)c(C(=O)c1ccccc1)cn2CC(=O)Nc1ccccc1`, 27.5 µM.
With `CC(c1ccccc1)N1CC(O)=C(c2nc3ccccc3s2)C1=N` (centres undefined) the figure was > 40 µM (inactive); with `COc1ccc(-c2noc([C@@H]3C[C@H](NC(=O)Nc4ccc(C)cc4)CN3C)n2)cc1`, > 40 µM (inactive).
For `FC(F)(F)c1cccc(Nc2nc(-c3ccccn3)nc3ccccc23)c1` the value was > 40 µM (inactive).
With `COCCCn1c(C(=O)NCc2ccccc2)cc2c(=O)n3ccccc3nc21`, the IC50 is > 40 µM (inactive).
For `Cc1ccc(C(=O)Nc2ccc3c(c2)Sc2ncccc2C(=O)N3C(C)C)cc1C` the value was > 40 µM (inactive).
For `COc1ccc(-c2ccc3cc(C(=O)O)ccc3c2)cc1C12CC3CC(CC(C3)C1)C2` the value was 8.03 µM.
For `O=C(Cn1c(=O)n(Cc2ccc3c(c2)OCO3)c(=O)c2ccccc21)NCc1ccco1`, the IC50 is > 40 µM (inactive).
With `C/C=C/C=C/[C@@H]1Cc2cc(O)cc(O)c2O1` the figure was 20.2 µM; with `COc1ccc(NC(=O)Nc2ccc(F)c(-c3nnc(-c4ccccc4)o3)c2)c(OC)c1`, > 40 µM (inactive).
For `COc1ccc(C(=O)CSc2nnc(-c3cc4ccccc4o3)n2C)cc1` the value was > 40 µM (inactive).
With `CN1CC(c2ncn[nH]2)c2cc(C(=O)NCc3cccc(F)c3)ccc21` (centres undefined) the figure was > 40 µM (inactive).
With `Cc1cc(OCC(=O)Nc2ccccc2C(=O)Nc2ccccc2)ccc1Cl`, the IC50 was > 40 µM (inactive).
With `Cc1cc(C(=O)N2CCOCC2)c(C)n1-c1ccc(O)cc1` the figure was 22.8 µM; with `O=C(CNS(=O)(=O)c1ccc(F)cc1)N1CCCC(c2nnc3ccccn23)C1` (centres undefined), > 40 µM (inactive); with `Cc1ccc(-n2nc(C)c3c2NC(=O)CC3C(=O)c2cc3ccccc3o2)cc1C` (centres undefined), > 40 µM (inactive).
